Test results reported in patent US12685733B2, “Indole molecules and use thereof in the inhibition of DNA polymerases” (BioVentures, LLC, priority 2019, dated 2026).

Columns and labels:
hpol κ = target: T1, hpol κ (Homo sapiens, UniProt Q9UBT6); experiment: Fluorescence-based (TAMRA/BHQ strand displacement) DNA polymerase activity assay; conditions: for activity at 40 µM: read-out: % Activity Mean (hpol κ activity)
T1 sequence (Q9UBT6 19-526): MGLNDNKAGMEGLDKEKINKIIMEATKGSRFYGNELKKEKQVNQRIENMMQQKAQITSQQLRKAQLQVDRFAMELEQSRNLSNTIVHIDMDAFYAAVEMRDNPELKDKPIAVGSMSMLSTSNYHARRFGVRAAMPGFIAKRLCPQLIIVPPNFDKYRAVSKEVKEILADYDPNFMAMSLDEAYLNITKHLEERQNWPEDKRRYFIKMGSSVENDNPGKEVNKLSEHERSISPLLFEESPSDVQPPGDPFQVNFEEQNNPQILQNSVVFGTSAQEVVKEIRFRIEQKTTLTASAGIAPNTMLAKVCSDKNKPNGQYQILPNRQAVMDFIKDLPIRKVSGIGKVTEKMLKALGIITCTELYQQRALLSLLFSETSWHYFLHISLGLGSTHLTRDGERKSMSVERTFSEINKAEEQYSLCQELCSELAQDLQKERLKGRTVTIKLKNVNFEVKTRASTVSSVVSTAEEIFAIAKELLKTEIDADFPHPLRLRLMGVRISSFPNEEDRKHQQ

recombinant hpol κ = target: T2, recombinant hpol κ (Homo sapiens, UniProt Q9UBT6); conditions: earlier screen; cited from earlier work
T2 sequence (Q9UBT6 1-870): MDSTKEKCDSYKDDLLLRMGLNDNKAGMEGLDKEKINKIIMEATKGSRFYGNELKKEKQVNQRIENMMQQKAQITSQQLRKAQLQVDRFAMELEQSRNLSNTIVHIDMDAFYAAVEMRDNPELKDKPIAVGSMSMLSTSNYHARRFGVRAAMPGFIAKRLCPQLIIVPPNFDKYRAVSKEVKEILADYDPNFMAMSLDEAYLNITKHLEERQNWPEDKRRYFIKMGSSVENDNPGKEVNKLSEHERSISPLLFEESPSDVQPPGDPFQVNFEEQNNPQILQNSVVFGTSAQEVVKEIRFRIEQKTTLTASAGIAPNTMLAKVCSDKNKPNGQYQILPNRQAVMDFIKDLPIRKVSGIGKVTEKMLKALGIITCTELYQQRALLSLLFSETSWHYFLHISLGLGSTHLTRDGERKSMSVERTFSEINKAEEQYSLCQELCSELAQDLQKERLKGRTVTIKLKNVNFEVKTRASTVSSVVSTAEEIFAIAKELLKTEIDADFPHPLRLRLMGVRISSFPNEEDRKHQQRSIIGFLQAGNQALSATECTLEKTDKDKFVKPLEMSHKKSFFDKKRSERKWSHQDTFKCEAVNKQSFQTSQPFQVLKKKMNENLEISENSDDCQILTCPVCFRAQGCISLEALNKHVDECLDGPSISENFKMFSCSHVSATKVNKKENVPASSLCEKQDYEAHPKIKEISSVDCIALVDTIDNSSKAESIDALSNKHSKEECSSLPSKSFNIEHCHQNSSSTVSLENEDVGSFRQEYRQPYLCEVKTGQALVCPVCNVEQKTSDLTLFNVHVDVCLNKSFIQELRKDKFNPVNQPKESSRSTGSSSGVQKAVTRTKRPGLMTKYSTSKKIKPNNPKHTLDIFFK

[1] = tested on: hpol κ-deficient HAP-1 cells; experiment: Clonogenic survival assay; type: cell-based, human; conditions: 250 μM TMZ
Procedure: (§1) HAP-1 and hpol κ^KO cells were purchased from Horizons Discovery Group LLC (Cambridge, UK). The company generated the Hap1 cells using CRISPR-Cas9 technology and the elimination of kappa expression was confirmed by Sanger sequence genome editing. We further confirmed the elimination of hpol κ protein expression by Western blotting (data not shown). Hap1 cells were cultured in Iscove's modified Dulbecco's medium (IMDM; Invitrogen, CA, USA) supplemented with 10% (v/v) fetal bovine serum (FBS; Atlas Biologicals, CO, USA) and 1% (v/v) antibiotic/antimycotic solution (Sigma-Aldrich, MO, USA).T98G cells were purchased from ATCC (American Type Culture Collection, VA, USA). T98G cells were cultured in MEM (Minimum Essential Medium) (Invitrogen, CA, USA) supplemented with 10% (v/v) FBS (Fetal Bovine Serum, Atlas Biologicals, CO, USA) and antibiotic/antimycotic solution (1%, v/v) (Sigma-Aldrich, MO, USA). NT2 cells were kindly provided by Dr. Michael Borrelli (University of Arkansas for Medical Sciences, AR, USA). NT2 cells were cultured in DMEM/F12 (Dulbecco's Modified Eagle Medium) supplemented with 10% (v/v) FCS (Fetal Calf Serum) and antibiotic/antimycotic solution (1%) (Sigma-Aldrich, MO, USA).
(§2) To measure the clonogenic ability, cells were plated (500 cells per well) in 6-well dishes. In the case of HAP-1 cells, cells were treated the following day after plating, with temozolomide (TMZ) (0, 1, 5, 50, 125 and 250 μM) alone or in combination with UAMS-48 (0.1 and 0.5 μM) for 1 hour. In the case of T98G and NT2 cells, treatment was done on the following day of plating, with increasing concentrations of TMZ alone or in combination with UAMS-48 (50 nM) for 3 hrs. T98G and NT2 cells were treated with increasing concentrations of UAMS-48 for 3 hrs. After treatment, cells were cultured in fresh IMDM supplemented with 10% FBS for 10 days. The colonies were gently washed with 1×PBS, fixed with 3.7% (v/v) formaldehyde for 20 mins at RT and stained with crystal violet solution (Sigma-Aldrich, MO, USA) for 30 mins at RT.
(§3) The fixed crystal-violet stained colonies in each 6-well plate were examined under an EVOS XL Core imaging system (Thermo Fisher Scientific) under bright-field, and the colonies were inspected manually. […] Color images of each 6-well plate were captured and opened for processing using the Fiji version of the freely available software ImageJ. Setting the appropriate threshold for counting colonies for each cell type, corresponding to the respective radii calculated previously, the colonies were counted using the Colony Area plugin of ImageJ. Manual counting was performed on a few wells picked randomly, and the colony count so obtained was tallied with the number obtained using ImageJ, to ensure they matched reasonably. All experiments were performed in triplicate, and the colony number for each well was expressed as the mean (±standard deviation). The results were plotted to generate a dose response curve for TMZ treatment using the software Graphpad Prism, where the mean number of colonies was plotted along the Y-axis, and the TMZ concentration along the X-axis. Bar charts comparing the mean number of colonies as a function of the various conditions were also plotted for both cell types. Combination index values were calculated using the Chou-Talalay method (Chou 2010).

[2] = tested on: hpol κ-proficient HAP-1 cells; experiment: Clonogenic survival assay; type: cell-based, human; conditions: 250 μM TMZ alone
Procedure: as §1, §2, §3

SMILES	activity at 40 µM (hpol κ)	also measured
Cc1c(C=C2C(=O)NC(=O)NC2=O)c2ccccc2n1C(=O)c1ccc2ccccc2c1 [IBA-14]	95.7%	
CCOc1nc2cccc(C(=O)OC(C)OC(=O)OC3CCCCC3)c2n1Cc1ccc(-c2ccccc2-c2nn[nH]n2)cc1 (stereo not shown) [candesartan, candesartan cilexetil]		IC50 for inhibition of recombinant hpol κ (recombinant hpol κ): tens of micromolar
COc1ccc(Cn2cc(C=C3C(=O)NC(=O)NC3=O)c3cccnc32)cc1 [IBA-4]	110%	
O=C1NC(=O)C(=Cc2cn(Cc3cccc4ccccc34)c3ncc(Cl)cc23)C(=O)N1 [IBA-8]	103%	
COc1ccc2c(c1)c(/C=N/NC(=N)N)cn2Cc1ccc2ccccc2c1 [IAG-5]	94%	IC50 (hpol κ): 43.7 µM
O=C1NC(=S)NC(=O)C1=Cc1cn(Cc2cccc3ccccc23)c2ncc(Cl)cc12 [IBA-5]	109%	
O=C1NC(=S)NC(=O)C1=Cc1cn(Cc2ccc3ccccc3c2)c2ccc(Cl)cc12 [IBA-32]	56.5%	turnover number (kcat), hpol κ-catalyzed dTTP insertion (hpol κ; steady-state kinetics with varying inhibitor concentration): it was the kcat and not the KdNTP that was altered
N#Cc1ccc(Cn2cc(C=C3C(=O)NC(=O)NC3=O)c3cccnc32)cc1 [IBA-24]	88.8%	
O=C1NC(=S)NC(=O)C1=Cc1cn(Cc2cccc3ccccc23)c2ccc(Cl)cc12 [IBA-6]	108%	
O=C1NC(=S)NC(=O)C1=Cc1cn(Cc2ccc(Br)cc2)c2ccc(COCCN3CCOCC3)cc12 [IBA-22]	91.1%	
Cc1c(C=C2C(=O)NC(=O)NC2=O)c2ccccc2n1C(=O)c1cccc2ccccc12 [IBA-7]	107%	
N=C(N)N/N=C/c1cn(Cc2ccc3ccccc3c2)c2ccccc12 [IAG-4]	95%	IC50 (hpol κ): 48.3 µM
O=C1NC(=O)C(=Cc2cn(Cc3ccc4ccccc4c3)c3ncc(Cl)cc23)C(=O)N1 [IBA-21]	92.2%	
O=C1NC(=S)NC(=O)C1=Cc1cn(C(=O)c2cccc3ccccc23)c2ccc(Cl)cc12 [IBA-27]	85.8%	
O=C1NC(=S)NC(=O)C1=Cc1cn(C(=O)c2ccc3ccccc3c2)c2ccc(Cl)cc12 [IBA-25]	87.6%	
N#Cc1ccc(Cn2cc(C=C3C(=O)NC(=S)NC3=O)c3cccnc32)cc1 [IBA-16]	94.5%	
O=C1NC(=S)NC(=O)C1=Cc1cn(Cc2cccc3ccccc23)c2ccc(Br)cc12 [IBA-34]	3.7%	
N=C(N)N/N=C/c1cn(Cc2cccc3ccccc23)c2ccc(Br)cc12 [IAG-8]	57%	IC50 (hpol κ): 7.2 to 24.2 µM
O=C1NC(=O)C(=Cc2cn(Cc3cccc(C(F)(F)F)c3)c3ncccc23)C(=O)N1 [IBA-9]	103%	
O=C1NC(=S)NC(=O)C1=Cc1cn(Cc2cccc(C(F)(F)F)c2)c2ncccc12 [IBA-13]	96.6%	
N=C(N)N/N=C/c1cn(C(=O)c2ccc3ccccc3c2)c2ccc(Cl)cc12 [IAG-9]	30%	IC50 (hpol κ): 18.8 µM
O=C1NC(=S)NC(=O)C1=Cc1cn(Cc2ccc3ccccc3c2)c2ccccc12 [IBA-1]	116%	

SMILES	activity at 40 µM (hpol κ)	also measured
N#Cc1ccc(Cn2cc(C=C3C(=O)NC(=O)NC3=O)c3ccccc32)cc1 [IBA-10]	102%	
Cc1c(C=C2C(=O)NC(=O)NC2=O)c2ccccc2n1Cc1ccc(Br)cc1 [IBA-19]	93.3%	
Cc1c(C=C2C(=O)N(C)C(=O)N(C)C2=O)c2cc(Cl)ccc2n1Cc1cccc2ccccc12 [IBA-3]	111%	
Cc1c(C=C2C(=O)NC(=S)NC2=O)c2ccccc2n1C(=O)c1cccc2ccccc12 [IBA-26]	86.4%	
COc1ccc2c(c1)c(C=C1C(=O)NC(=S)NC1=O)c(C)n2Cc1cccc2ccccc12 [IBA-23]	91%	
Cc1c(/C=N/NC(=N)N)c2ccccc2n1C(=O)c1cccc2ccccc12 [IAG-1]	105%	IC50 (hpol κ): 84.6 µM
N=C(N)N/N=C/c1cn(Cc2cccc3ccccc23)c2ccc(Cl)cc12 [IAG-7]	64%	IC50 (hpol κ): 24.2 µM
Cc1c(C=C2C(=O)NC(=S)NC2=O)c2ccccc2n1C(=O)c1ccc2ccccc2c1 [IBA-18]	93.5%	
O=C1NC(=O)C(=Cc2cn(Cc3ccc4ccccc4c3)c3ccc(Cl)cc23)C(=O)N1 [IBA-31]	67.6%	
O=C1NC(=S)NC(=O)C1=Cc1cn(C(=O)c2cccc3ccccc23)c2ccccc12 [IBA-29]	83.3%	
COc1ccc2c(c1)c(C=C1C(=O)NC(=S)NC1=O)cn2C(=O)c1ccc2ccccc2c1 [IBA-20]	92.9%	
COc1ccc2c(c1)c(/C=N/NC(=N)N)cn2C(=O)c1cccc2ccccc12 [IAG-2]	104%	IC50 (hpol κ): 68.6 µM
COc1ccc2c(c1)c(C=C1C(=O)NC(=S)NC1=O)cn2C(=O)c1cccc2ccccc12 [IBA-17]	93.8%	
COc1ccc2c(c1)c(C=C1C(=O)N(C)C(=O)N(C)C1=O)c(C)n2Cc1cccc2ccccc12 [IBA-2]	114%	
O=C1NC(=S)NC(=O)C1=Cc1cn(C(=O)c2ccc3ccccc3c2)c2ccccc12 [IBA-30]	81.4%	
COc1ccc(Cn2cc(C=C3C(=O)NC(=S)NC3=O)c3cccnc32)cc1 [IBA-15]	95.1%	
O=C1NC(=S)NC(=O)C1=Cc1cn(Cc2ccc3ccccc3c2)c2ncc(Cl)cc12 [IBA-28]	84.4%	
Cn1nnc2c(C(N)=O)ncn2c1=O [TMZ, temozolomide, reference compound]		colonies formed relative to untreated cells [1]: less than 50%; colonies formed relative to control [2]: ~ 75%
Cc1c(C=C2C(=O)NC(=O)NC2=O)c2cc(Cl)ccc2n1Cc1cccc2ccccc12 [IBA-12]	96.6%	
Cc1c(C=C2C(=O)NC(=S)NC2=O)c2cc(Cl)ccc2n1Cc1cccc2ccccc12 [IBA-11]	99.1%	
O=C1NC(=O)C(=Cc2cn(Cc3ccc4ccccc4c3)c3ccccc23)C(=O)N1 [IBA-33]	17.9%	
